Source: PubChem BioAssay AID330 (DTP/NCI, 2004)
Where “and” joins values, the source holds several entries; their conditions need not be identical. Identical values can stand only once. Inconclusive results and toxic doses are left out.

System: P388 leukemia ip, CD2F1 mice, survival T/C
Assay: NCI In Vivo Anticancer Drug Screen. Data for tumor model P388 Leukemia (intraperitoneal) in CD2F1 (CDF1) mice
Conditions: endpoint: median survival time, higher = longer survival
How it was run: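 Mice carrying the transplanted tumor received test compound or vehicle. Survival was recorded in each group, and the value is the treated-group measurement divided by that of the vehicle-treated control group.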

[1] = dose: 50.0 mg/kg/injection, schedule: Q01DX005 (ip), vehicle: Klucel (hydroxypropylcellulose) (HPC)
[2] = dose: 100.0 mg/kg/injection, schedule: Q01DX005 (ip), vehicle: Klucel (hydroxypropylcellulose) (HPC)
[3] = dose: 25.0 mg/kg/injection, schedule: Q01DX009 (ip), vehicle: saline with Tween-80
[4] = dose: 50.0 mg/kg/injection, schedule: Q01DX009 (ip), vehicle: saline with Tween-80
[5] = dose: 400.0 mg/kg/injection, schedule: Q04DX003 (ip), vehicle: saline with Tween-80
[6] = dose: 100.0 mg/kg/injection, schedule: Q01DX009 (ip), vehicle: saline with Tween-80
[7] = dose: 50.0 mg/kg/injection, schedule: Q01DX009 (ip), vehicle: Klucel (hydroxypropylcellulose) (HPC)
[8] = dose: 100.0 mg/kg/injection, schedule: Q01DX009 (ip), vehicle: Klucel (hydroxypropylcellulose) (HPC)
[9] = dose: 50.0 mg/kg/injection, schedule: Q01DX009 (ip), vehicle: saline
[10] = dose: 200.0 mg/kg/injection, schedule: Q01DX005 (ip), vehicle: Klucel (hydroxypropylcellulose) (HPC)

CC1(C)C=Cc2c(ccc3c(=O)c(-c4ccc5c(c4)OCO5)coc23)O1
T/C (dose: 25.0 mg/kg/injection, schedule: Q04DX002 (ip), vehicle: saline with Tween-80): 107 % of control
T/C (dose: 50.0 mg/kg/injection, schedule: Q04DX002 (ip), vehicle: saline with Tween-80): 101 % of control
T/C (dose: 100.0 mg/kg/injection, schedule: Q04DX002 (ip), vehicle: saline with Tween-80): 99 % of control and 108 % of control

C=C1C(=O)O[C@@H]2C[C@@H](C)[C@@H]3CC[C@H](O)[C@@]3(COC(C)=O)C[C@@H]12
T/C (dose: 8.13 mg/kg/injection, schedule: Q01DX005 (ip), vehicle: Klucel (hydroxypropylcellulose) (HPC)): 97 % of control
T/C (dose: 16.25 mg/kg/injection, schedule: Q01DX005 (ip), vehicle: Klucel (hydroxypropylcellulose) (HPC)): 99 % of control
T/C (dose: 32.5 mg/kg/injection, schedule: Q01DX005 (ip), vehicle: Klucel (hydroxypropylcellulose) (HPC)): 100 % of control and 98 % of control
T/C (dose: 65.0 mg/kg/injection, schedule: Q01DX005 (ip), vehicle: Klucel (hydroxypropylcellulose) (HPC)): 104 % of control and 109 % of control
T/C (dose: 130.0 mg/kg/injection, schedule: Q01DX005 (ip), vehicle: Klucel (hydroxypropylcellulose) (HPC)): 113 % of control
T/C (dose: 260.0 mg/kg/injection, schedule: Q01DX005 (ip), vehicle: Klucel (hydroxypropylcellulose) (HPC)): 122 % of control

CC[N+](CC)(CC)c1ccccc1
T/C (dose: 6.25 mg/kg/injection, schedule: Q04DX002 (ip), vehicle: saline): 105 % of control
T/C (dose: 12.5 mg/kg/injection, schedule: Q04DX002 (ip), vehicle: saline): 111 % of control
T/C (dose: 25.0 mg/kg/injection, schedule: Q04DX002 (ip), vehicle: saline): 100 % of control and 104 % of control

[N-]=[N+]=CC(=O)NC(Cc1ccccc1)C(=O)NN (centres undefined)
T/C (dose: 25.0 mg/kg/injection, schedule: Q01DX005 (ip), vehicle: Klucel (hydroxypropylcellulose) (HPC)): 107 % of control
T/C [1]: 98 % of control
T/C [2]: 110 % of control

CC(C)(C)N1CC(O)C1
T/C (dose: 50.0 mg/kg/injection, schedule: Q01DX001 (ip), vehicle: saline): 100 % of control
T/C (dose: 100.0 mg/kg/injection, schedule: Q01DX001 (ip), vehicle: saline): 98 % of control
T/C (dose: 200.0 mg/kg/injection, schedule: Q01DX001 (ip), vehicle: saline): 93 % of control

O=C(CC(=O)c1ccccc1F)Nc1ccc([N+](=O)[O-])cc1
T/C (dose: 12.5 mg/kg/injection, schedule: Q01DX009 (ip), vehicle: saline with Tween-80): 100 % of control
T/C [3]: 100 % of control
T/C [4]: 95 % of control
T/C (dose: 100.0 mg/kg/injection, schedule: Q04DX003 (ip), vehicle: saline with Tween-80): 90 % of control
T/C (dose: 200.0 mg/kg/injection, schedule: Q04DX003 (ip), vehicle: saline with Tween-80): 95 % of control
T/C [5]: 100 % of control

Cc1cc(C(=O)NC(C)c2ccc(S(=O)(=O)NC(=O)NC3CCCCC3)cc2)no1 (centres undefined)
T/C (dose: 50.0 mg/kg/injection, schedule: Q04DX002 (ip), vehicle: Klucel (hydroxypropylcellulose) (HPC)): 99 % of control
T/C (dose: 100.0 mg/kg/injection, schedule: Q04DX002 (ip), vehicle: Klucel (hydroxypropylcellulose) (HPC)): 100 % of control
T/C (dose: 200.0 mg/kg/injection, schedule: Q04DX002 (ip), vehicle: Klucel (hydroxypropylcellulose) (HPC)): 97 % of control

CCCC[P+](CCCC)(CCCC)CC(=O)O
T/C [3]: 97 % of control
T/C [4]: 100 % of control
T/C [6]: 95 % of control

O=C(/C=C\c1ccncc1)c1ccc([N+](=O)[O-])cc1
T/C (dose: 25.0 mg/kg/injection, schedule: Q01DX009 (ip), vehicle: other): 103 % of control
T/C (dose: 50.0 mg/kg/injection, schedule: Q01DX009 (ip), vehicle: other): 101 % of control
T/C (dose: 100.0 mg/kg/injection, schedule: Q01DX009 (ip), vehicle: other): 96 % of control
T/C (dose: 200.0 mg/kg/injection, schedule: Q01DX009 (ip), vehicle: other): 93 % of control
T/C (dose: 400.0 mg/kg/injection, schedule: Q01DX009 (ip), vehicle: other): 92 % of control

CCOC(=O)NN(C(=O)OCC)C(=C(C1CCCCC1)N1CCOCC1)N(NC(=O)OCC)C(=O)OCC
T/C [7]: 95 % of control
T/C [8]: 98 % of control
T/C (dose: 200.0 mg/kg/injection, schedule: Q01DX009 (ip), vehicle: Klucel (hydroxypropylcellulose) (HPC)): 94 % of control

O=c1[nH]c(=O)c2cc(Cl)cc(Cl)c2[nH]1
T/C (dose: 50.0 mg/kg/injection, schedule: Q01DX001 (ip), vehicle: saline with Tween-80): 90 % of control
T/C (dose: 100.0 mg/kg/injection, schedule: Q01DX001 (ip), vehicle: saline with Tween-80): 90 % of control
T/C (dose: 200.0 mg/kg/injection, schedule: Q01DX001 (ip), vehicle: saline with Tween-80): 90 % of control

C=C(NC(=O)C(=C)NC(=O)c1csc(C2=NC3c4csc(n4)C4NC(=O)c5csc(n5)C(C(C)(O)C(C)O)NC(=O)C5CSC(=N5)/C(=C/C)NC(=O)C(C(C)O)NC(=O)c5csc(n5)C3(CC2)NC(=O)C(C)NC(=O)C(=C)NC(=O)C(=C)NC(=O)C(C(C)C)NC2C=Cc3c(C(C)O)cc(nc3C2O)C(=O)OC4C)n1)C(N)=O (centres undefined)
T/C [9]: 150 % of control

CC1(C)CC(=O)C(CSCS)=C(O)C1
T/C (dose: 100.0 mg/kg/injection, schedule: Q01DX001 (ip), vehicle: Klucel (hydroxypropylcellulose) (HPC)): 114 % of control
T/C (dose: 200.0 mg/kg/injection, schedule: Q01DX001 (ip), vehicle: Klucel (hydroxypropylcellulose) (HPC)): 99 % of control
T/C (dose: 400.0 mg/kg/injection, schedule: Q01DX001 (ip), vehicle: Klucel (hydroxypropylcellulose) (HPC)): 92 % of control

Cc1ccc(N=C=C(c2ccccc2)c2ccccc2)cc1
T/C [7]: 123 % of control
T/C [8]: 119 % of control

COc1cc(OC)cc(C(C)(C)C)c1
T/C [9]: 97 % of control
T/C (dose: 100.0 mg/kg/injection, schedule: Q01DX009 (ip), vehicle: saline): 100 % of control
T/C (dose: 200.0 mg/kg/injection, schedule: Q01DX009 (ip), vehicle: saline): 107 % of control

S=c1cc(-c2ccccc2)ss1
T/C (dose: 178.0 mg/kg/injection, schedule: Q04DX003 (ip), vehicle: saline with Tween-80): 102 % of control
T/C (dose: 266.0 mg/kg/injection, schedule: Q04DX003 (ip), vehicle: saline with Tween-80): 102 % of control
T/C [5]: 101 % of control
T/C (dose: 600.0 mg/kg/injection, schedule: Q04DX003 (ip), vehicle: saline with Tween-80): 102 % of control

O=C1C(=O)c2ncccc2-c2ncccc21
T/C (dose: 7.5 mg/kg/injection, schedule: Q01DX005 (ip), vehicle: saline with Tween-80): 113 % of control
T/C (dose: 15.0 mg/kg/injection, schedule: Q01DX005 (ip), vehicle: saline with Tween-80): 95 % of control

N/C(=N\S(=O)(=O)c1ccccc1)[N+](=O)[O-]
T/C [1]: 102 % of control
T/C [2]: 102 % of control
T/C [10]: 98 % of control

CCCCCCCCCCCCCCCCN1c2ccccc2C(C)(C)C12C=Cc1cccc([N+](=O)[O-])c1O2 (centres undefined)
T/C [4]: 92 % of control
T/C [6]: 93 % of control
T/C (dose: 200.0 mg/kg/injection, schedule: Q01DX009 (ip), vehicle: saline with Tween-80): 88 % of control

CCC1(C)c2[nH]c3ccccc3c2C(=O)NN1C(C)=O (centres undefined)
T/C [1]: 104 % of control
T/C [2]: 107 % of control
T/C [10]: 112 % of control

CC(C)CN1CC(=O)N2Cc3ccccc3CN2C(=O)C1
T/C (dose: 50.0 mg/kg/injection, schedule: Q01DX005 (ip), vehicle: saline with Tween-80): 101 % of control
T/C (dose: 100.0 mg/kg/injection, schedule: Q01DX005 (ip), vehicle: saline with Tween-80): 106 % of control
T/C (dose: 200.0 mg/kg/injection, schedule: Q01DX005 (ip), vehicle: saline with Tween-80): 103 % of control

CC(=O)OCC1OC(Oc2cccc(C=C(C(C)=O)C(C)=O)c2)C(OC(C)=O)C(OC(C)=O)C1OC(C)=O (centres undefined)
T/C [1]: 100 % of control
T/C [2]: 98 % of control
T/C [10]: 105 % of control

CCOC(=NC#N)NOC
T/C (dose: 60.0 mg/kg/injection, schedule: Q01DX005 (ip), vehicle: Klucel (hydroxypropylcellulose) (HPC)): 93 % of control
T/C (dose: 120.0 mg/kg/injection, schedule: Q01DX005 (ip), vehicle: Klucel (hydroxypropylcellulose) (HPC)): 98 % of control
T/C (dose: 240.0 mg/kg/injection, schedule: Q01DX005 (ip), vehicle: Klucel (hydroxypropylcellulose) (HPC)): 102 % of control

C/C=C/C=C1/OC(C)=C(C(C)=O)C1=O
T/C (dose: 12.5 mg/kg/injection, schedule: Q01DX009 (ip), vehicle: saline + Tween-80 + alcohol): 117 % of control
T/C (dose: 25.0 mg/kg/injection, schedule: Q01DX009 (ip), vehicle: saline + Tween-80 + alcohol): 114 % of control
T/C (dose: 100.0 mg/kg/injection, schedule: Q01DX009 (ip), vehicle: saline + Tween-80 + alcohol): 112 % of control
T/C [6]: 124 % of control
T/C (dose: 200.0 mg/kg/injection, schedule: Q01DX009 (ip), vehicle: saline + Tween-80 + alcohol): 123 % of control
